“Also recorded” adds a separate entry of the source. Where two headings read alike, the source gives them in different places.
Tests used:
[1] = Systemic (intravenous) pharmacokinetics in rats; type: in vivo, rat; conditions: 4 mg/kg i.v.
Procedure: This study was performed in male Sprague-Dawley (SD) rats (Orient Bio, Sungnam, Korea), as described previously. Rats were provided water and food ad libitum and maintained under a 12:12-h light/dark cycle. On the experimental day, a femoral vein and contralateral artery were cannulated using an Intramedic™ polyethylene tube (PE-50; Becton Dickinson Diagnostics, Sparks, MD, USA) under Zoletil induced anesthesia (50 mg/kg intramuscularly; Virbac, Carros, France). For the intravenous pharmacokinetic study, Gem-Thr or gemcitabine solution were injected into a femoral vein at 4 mg/kg. Blood (~0.22 mL) was taken from the femoral artery at 0 (blank), 1, 5, 15, 30, 60, 120, 240, 480, 720, or 1440 min. To prevent blood loss, the same volume of normal saline was injected intravenously at each time point. Plasma was obtained immediately centrifugation and then stored at −80 °C prior to LC-MS/MS.
The pharmacokinetic parameters of Gem-Thr, gemcitabine, Gem-Thr plus gemcitabine, and free gemcitabine were calculated by non-compartmental analysis using WinNonlin (Version 3.1; Pharsight, Mountain View, CA, USA), as described previously (Park et al., 2016).
To determine concentrations of Gem-Thr and gemcitabine in rat plasma, plasma samples were deproteinized by adding two volumes of acetonitrile containing internal standard (phenacetin). After mixing, mixtures were centrifuged at 14,000× g for 10 min.
Aliquots of supernatants (2-µL) were injected into the LC-MS/MS system, which consisted of an Agilent HPLC and an Agilent 6490 QQQ mass spectrometer equipped with an ESI+ Agilent Jet Stream ion source (Agilent Technologies, Santa Clara, CA, USA). The separation of each drug and IS from endogenous plasma substances was achieved on a Synergi Polar-RP 80A column (150 × 2.0 mm, 4 μm; Phenomenex, Torrance, CA, USA). The mobile phase consisted of 0.1% formic acid and acetonitrile (20:80, v/v) at a flow rate of 0.2 mL/min. The column and autosampler tray were maintained at 25 and 4 °C, respectively. Gemcitabine, Gem-Thr, and the IS were quantified by multiple-reaction monitoring (MRM) in positive electrospray ionization mode. Respective precursor-to-product ion transitions were as follows: Gemcitabine, 264.1→112.1, Gem-Thr, 387.1→343.2, and IS (phenacetin), 180.2→162.2. Data acquisition was performed using Mass Hunter software (ver. A.02.00; Agilent Technologies).

[2] = 37 °C
Procedure: The metabolic stability of Gem-Thr was examined in the presence of PBS (pH 7.4), rat plasma, or liver microsomes as described previously (Maeng et al., 2014). Fresh rat plasma was obtained from sacrificed SD rats (260–280 g) after centrifuging blood (12,000× g, 15 min). Rat liver microsomes were obtained from BD Gentest. Gem-Thr (10 µM) was spiked into PBS, blank rat plasma, or liver microsomes (1 mg protein/mL) and incubated in a shaking water bath at 37 °C for 8 h. Aliquots (50-µL) were taken after 0, 15, 30, 60, 120, 240, […], or 480 min of incubation, immediately pretreated with ice-cold methanolic solution including the internal standard, vortexed for 3 min and centrifuged (12,000× g, 10 min). Supernatants were stored at −80 °C until required for analysis.

[3] = tested on: BxPC-3 cells; assay: Apoptosis: cleaved PARP western blot and TUNEL assay; type: cell-based, Human; conditions: 1 µM, 24 h treatment
Procedure: BxPC-3 cells were washed with DPBS and lysed with RIPA buffer (Biosesang, Seongnam, Korea) containing 150 mM NaCl, 1% Triton X-100, 1% sodium deoxycholate, 0.1% SDS, 50 mM Tris-HCl (pH 7.5), 2 mM EDTA (pH 8.0), and Xpert protease inhibitor and phosphatase inhibitor Cocktail (GenDEPOT, Barker, TX, USA). Proteins were separated by 8% or 15% SDS-PAGE (sodium dodecylsulfate-polyacrylamide gel electrophoresis) and transferred to polyvinylidene fluoride (PVDF) membranes. […] Antibody binding was detected using an enhanced chemiluminescence (ECL) reagent (Bio-Rad, Hercules, CA, USA) using primary antibodies specific to proteins of interest, and proteins were detected using X-ray film and enhanced chemiluminescence reagent. Primary antibodies against the following were used: LAT-1, cleaved PARP (Cell Signaling Technologies, Beverly, MA, USA), GAPDH (Abcam, Cambridge, MA, USA), and β-actin (Sigma Aldrich, St. Louis, MO, USA). Secondary antibodies were purchased from Cell signaling technology.
TUNEL assay was conducted with the ApopTag® Peroxidase In Situ Apoptosis Detection Kit (Merck Millipore, Burlington, MA, USA). Briefly, BxPC-3 cells were seeded onto 18-mm cover glasses in medium and grown to ~70% confluence over 24 h.

[4] = tested on: MIAPaCa-2 cells; assay: MTT cytotoxicity assay in MIAPaCa-2 cells; type: cell-based, Human; conditions: 1 μM, 48 h
Procedure: (§1) Figure 3 Growth-inhibitory effects of gemcitabine and of its amino-acid-conjugated derivatives on BxPC-3, MIAPaCa-2, A549, MDA-MB-231 B16 cells after exposure to 1 μM concentrations for 48 h, as estimated by MTT assay (mean ± SD, n = 3). Experiments were performed three times independently. * p < 0.05, compared with free gemcitabine group.
(§2) Human pancreatic cancer cells (MIAPaCa-2, BxPC-3 and AsPC-1), lung cancer cell lines (A549), human breast cancer cell lines (MDA-MB-231) and melanoma cell lines (B16) were purchased from the American Type Culture Collection (Manassas, VA, USA). MIAPaCa-2 and B16-F10 cells were cultured in Dulbecco’s modified Eagle’s medium (DMEM) supplemented with 10% heat-inactivated fetal bovine serum (FBS) and 1% penicillin/streptomycin. Aspc-1, BxPC-3 MDA-MB-231 and A549 cells were cultured in Roswell Park Memorial Institute 1640 (RPMI-1640) medium supplemented with 10% FBS and 1% penicillin/streptomycin. FBS and all other reagents used for cell culture were purchased from Invitrogen (Carlsbad, CA, USA). Cultures were maintained at 37 °C in 95% air /5% CO2 humidified atmosphere.
(§3) Cancer cell viabilities after treatment with gemcitabine or its derivatives were quantified using MTT assay as described previously. […] After incubation for 4 h, optical densities (OD) were determined using a microplate reader by measuring absorbances at 540 nm.

[5] = tested on: BxPC-3 cells; assay: MTT cytotoxicity assay in BxPC-3 cells; type: cell-based, Human; conditions: 48 h
Procedure: as §1, §2
Cancer cell viabilities after treatment with gemcitabine or its derivatives were quantified using MTT assay as described previously. Briefly, cells were seeded onto 96-well plates at 3 × 10^3 cells per well and incubated at 37 °C. The cells were treated with each compound at indicated concentrations for 48 h and then, 20 μL of MTT labeling mixture was added to each well. After incubation for 4 h, optical densities (OD) were determined using a microplate reader by measuring absorbances at 540 nm.

[6] = parameters: method as in PMID 19860433; conditions: cited from earlier work
[7] = parameters: method as in PMID 18519786; conditions: in man; cited from earlier work
[8] = tested on: A549 (lung cancer cells); assay: MTT cytotoxicity assay in A549 cells; type: cell-based; conditions: 1 μM, 48 h
Procedure: as §1, §2, §3

[9] = tested on: B16 (melanoma cells); assay: MTT cytotoxicity assay in B16 cells; type: cell-based; conditions: 1 μM, 48 h
Procedure: Human pancreatic cancer cells (MIAPaCa-2, BxPC-3 and AsPC-1) [21], lung cancer cell lines (A549) [22], human breast cancer cell lines (MDA-MB-231) [23] and melanoma cell lines (B16) [24] were purchased from the American Type Culture Collection (Manassas, VA, USA). MIAPaCa-2 and B16-F10 cells were cultured in Dulbecco’s modified Eagle’s medium (DMEM) supplemented with 10% heat-inactivated fetal bovine serum (FBS) and 1% penicillin/streptomycin. Aspc-1, BxPC-3 MDA-MB-231 and A549 cells were cultured in Roswell Park Memorial Institute 1640 (RPMI-1640) medium supplemented with 10% FBS and 1% penicillin/streptomycin. […] Cultures were maintained at 37 °C in 95% air /5% CO2 humidified atmosphere.
Cancer cell viabilities after treatment with gemcitabine or its derivatives were quantified using MTT assay as described previously [25]. Briefly, cells were seeded onto 96-well plates at 3 × 10^3 cells per well and incubated at 37 °C. The cells were treated with each compound at indicated concentrations for 48 h and then, 20 μL of MTT labeling mixture was added to each well. After incubation for 4 h, optical densities (OD) were determined using a microplate reader by measuring absorbances at 540 nm.

[10] = tested on: MDA-MB-231 (breast cancer cells); assay: MTT cytotoxicity assay in MDA-MB-231 cells; type: cell-based, human; conditions: 1 μM, 48 h
Procedure: as §1, §2, §3

[11] = analyte = administered compound

Structure (SMILES): C[C@@H](O)[C@H](N)C(=O)Nc1ccn([C@@H]2O[C@H](CO)[C@@H](O)C2(F)F)c(=O)n1 [Gem-Thr, (2S,3R)-2-Amino-N-(1-((2R,4R,5R)-3,3-difluoro-4-hydroxy-5-(hydroxylmethyl)tetra-hydrofuran-2-yl)-2-oxo-1,2-dihydropyrimidin-4-yl)-3-hydroxybutanamide2-(4-((pyridin-3-ylmethyl)amino)quinazolin-2-yl)phenol]
- AUC of sum of Gem-Thr and gemcitabine (metabolite) versus gemcitabine alone [1]: 3.62 fold
- AUC [1, 11]: 1713.85 ± 1082.40 µg·min/mL
- CL [1, 11]: 2.85 ± 1.33 mL/min/kg
- MRT [1, 11]: 3.953 ± 0.3478 h
- Terminal t1/2 [1, 11]: 3.9363 ± 0.849 h
- Vss [1, 11]: 0.66235 ± 0.2814 L/kg
- increase of systemic exposure (AUC of gemcitabine) versus free gemcitabine ([1]; formed gemcitabine vs free gemcitabine): 1.83 fold
- fraction of Gem-Thr metabolized in rat plasma ([2]; 10 µM, after 8 h): 20%
- metabolic stability in rat plasma ([2]; 10 µM, up to 8 h): metabolically stable
- stability in PBS ([2]; PBS pH 7.4, 10 µM, up to 8 h): metabolically stable
- metabolic stability in rat liver microsomal fractions ([2]; rat liver microsomes 1 mg protein/mL, 10 µM, up to 8 h): metabolically stable
- apoptosis (cleaved PARP, TUNEL positive cells) [3]: induced apoptosis significantly
- anti-cancer effect (cytotoxicity) [4]: most potent anticancer effect; also recorded: more effective than free gemcitabine
- anti-cancer effect (cytotoxicity) ([5]; 1 μM): most potent anticancer effect; also recorded: more effective than free gemcitabine
- cell viability ([5]; 1 μM): 44.7%

Structure (SMILES): Nc1ccn([C@@H]2O[C@H](CO)[C@@H](O)C2(F)F)c(=O)n1 [gemcitabine, 2′-2′-difluorodeoxycytidine]
- clearance ([1]; male, Sprague-Dawley, rat, plasma, iv, analyte = administered compound): 4.23 ± 0.23 mL/min/kg
- AUC ([1]; male, Sprague-Dawley, rat, plasma, iv, analyte = administered compound, read-out: AUC (converted)): 948 µg·min/mL
- MRT ([1]; male, Sprague-Dawley, rat, plasma, iv, analyte = administered compound, read-out: MRT (converted)): 9.7 h
- half-life ([1]; male, Sprague-Dawley, rat, plasma, iv, analyte = administered compound, read-out: Terminal t1/2): 8.88 ± 2.96 h
- Vd ([1]; male, Sprague-Dawley, rat, plasma, iv, analyte = administered compound, read-out: Vss): 2.48 ± 0.867 L/kg
- apoptosis (cleaved PARP, TUNEL positive cells) [3]: induced apoptosis significantly
- oral bioavailability (BA) [6]: low oral bioavailability
- half-life [7]: 9 min
- anti-cancer effect versus vehicle treated controls [8]: neither gemcitabine nor gemcitabine derivatives had any significant anti-cancer effect
- anti-cancer effect (cytotoxicity) [4]: significant anti-cancer effects
- anti-cancer effect (cytotoxicity) [9]: significant anti-cancer effects
- anti-cancer effect versus vehicle treated controls [10]: neither gemcitabine nor gemcitabine derivatives had any significant anti-cancer effect
- anti-cancer effect (cytotoxicity) ([5]; 1 μM): significant anti-cancer effects
- viability at 1 µM ([5]; Homo sapiens, read-out: cell viability): 54.1%
